Assay results as given in the NIST ThermoML archive (doi:10.1016/j.jct.2005.10.009).

Test: molar heat capacity at constant pressure; xn = mol fraction of the nth substance listed
Settings: 101 kPa, Liquid, Small sample (50 mg) DSC

CCCCCCCCCCO [decan-1-ol] + CCCCCCC
molar heat capacity at constant pressure [J/K/mol]
Settings	x1 = 0.0506	x1 = 0.0979	x1 = 0.1541	x1 = 0.2543	x1 = 0.3757	x1 = 0.5378	x1 = 0.7551	x1 = 0.9008	x1 = 1
290.91 K	235.98	243.78	252.15	266.07	282.7	304.21	333.09	351.55	364.49
291.15 K	236.08	243.9	252.2	266.16	282.63	304.17	333.35	351.9	364.8
292.15 K	236.53	244.42	252.79	266.99	283.4	305.3	334.38	353.11	366.05
293.15 K	237.09	245.13	253.5	267.69	284.09	306.17	335.4	354.31	367.19
294.15 K	237.67	245.8	254.28	268.44	284.97	307.04	336.39	355.23	368.25
295.15 K	238.27	246.44	255.06	269.19	285.92	308.08	337.47	356.26	369.35
296.15 K	238.89	247.13	255.82	269.75	286.81	308.89	338.44	357.26	370.35
297.15 K	239.51	247.87	256.61	270.59	287.73	309.97	339.61	358.4	371.6
298.15 K	239.86	248.38	257.16	271.36	288.4	310.74	340.46	359.54	372.77
299.15 K	240.3	248.86	257.8	272.19	289.09	311.53	341.42	360.58	373.71
300.15 K	240.83	249.51	258.45	272.99	289.92	312.43	342.44	361.76	374.91
301.15 K	241.28	250.01	259.03	273.68	290.74	313.24	343.35	362.66	375.89
302.15 K	241.86	250.66	259.8	274.46	291.61	314.17	344.4	363.81	377.05
303.15 K	242.35	251.17	260.34	275.23	292.47	315.15	345.4	364.87	378.2
304.15 K	242.86	251.87	261.18	276.03	293.43	316.13	346.52	366.04	379.47
305.15 K	243.39	252.56	261.84	276.84	294.24	317.05	347.59	367.12	380.58
306.15 K	243.87	253.07	262.53	277.6	295.15	318	348.57	368.24	381.75
307.15 K	244.14	253.41	262.92	278.04	295.57	318.55	349.26	368.97	382.43
308.15 K	245.18	254.65	264.24	279.52	297.18	320.29	351.13	370.98	384.6
309.15 K	245.41	255.04	264.68	280.05	297.76	320.96	351.89	371.76	385.42
310.15 K	245.95	255.58	265.32	280.82	298.67	321.92	352.97	372.9	386.61
311.15 K	246.43	256.31	266.13	281.69	299.62	323.01	354.17	374.19	387.89
312.15 K	246.88	256.87	266.75	282.41	300.41	323.89	355.15	375.27	389.03
313.15 K	247.31	257.46	267.42	283.25	301.36	324.89	356.22	376.4	390.28
314.15 K	247.77	258.06	268.13	284.06	302.25	325.9	357.35	377.6	391.58
315.15 K	248.34	258.68	268.86	284.88	303.16	326.94	358.54	378.81	392.8
316.15 K	248.75	259.2	269.56	285.67	304.03	327.84	359.56	379.98	394.11
317.15 K	249.2	259.91	270.2	286.49	304.91	328.86	360.67	381.22	395.3
318.15 K	249.65	260.46	270.95	287.25	305.87	329.91	361.79	382.38	396.66
318.39 K	249.73	260.52	271.04	287.43	306.02	330.09	362.01	382.62	396.93
